How the values were obtained:
Acinetobacter baumannii = assay: Antibacterial activity against Acinetobacter baumannii assessed as decrease in bacterial growth incubated for 18 hrs by broth microdilution method; type: functional
Staphylococcus aureus [1] = assay: Antibacterial activity against methicillin-resistant Staphylococcus aureus N315 assessed as decrease in bacterial growth incubated for 18 hrs by broth microdilution method; type: functional
Escherichia coli [2] = assay: Antibacterial activity against Escherichia coli ATCC 25922 assessed as decrease in bacterial growth incubated for 18 hrs by broth microdilution method; type: functional
Klebsiella pneumoniae = assay: Antibacterial activity against Klebsiella pneumoniae assessed as decrease in bacterial growth incubated for 18 hrs by broth microdilution method; type: functional
Staphylococcus aureus [3] = assay: Antibacterial activity against Staphylococcus aureus ATCC 25923 assessed as decrease in bacterial growth incubated for 18 hrs by broth microdilution method; type: functional
Staphylococcus aureus [4] = assay: Antibacterial activity against Staphylococcus aureus ATCC 29213 assessed as decrease in bacterial growth incubated for 18 hrs by broth microdilution method; type: functional
Staphylococcus aureus [5] = assay: Antibacterial activity against Staphylococcus aureus assessed as decrease in bacterial growth incubated for 18 hrs by broth microdilution method; type: functional
Enterococcus faecalis = assay: Antibacterial activity against Enterococcus faecalis assessed as decrease in bacterial growth incubated for 18 hrs by broth microdilution method; type: functional
Pseudomonas aeruginosa [6] = assay: Antibacterial activity against Pseudomonas aeruginosa assessed as decrease in bacterial growth incubated for 18 hrs by broth microdilution method; type: functional
[7] = Aqueous solubility of the compound in saline; type: physicochemical
Escherichia coli [8] = assay: Antibacterial activity against Escherichia coli assessed as decrease in bacterial growth incubated for 18 hrs by broth microdilution method; type: functional
Pseudomonas aeruginosa [9] = assay: Antibacterial activity against Pseudomonas aeruginosa ATCC 27853 assessed as decrease in bacterial growth incubated for 18 hrs by broth microdilution method; type: functional

| SMILES | MIC (Acinetobacter baumannii) | MIC (Staphylococcus aureus [1]) | MIC (Escherichia coli [2]) | MIC (Klebsiella pneumoniae) | MIC (Staphylococcus aureus [3]) | MIC (Staphylococcus aureus [4]) | MIC (Staphylococcus aureus [5]) | MIC (Enterococcus faecalis) | MIC (Pseudomonas aeruginosa [6]) | solubility [7] | MIC (Escherichia coli [8]) | MIC (Pseudomonas aeruginosa [9]) |
| --- | --- | --- | --- | --- | --- | --- | --- | --- | --- | --- | --- | --- |
| COc1ccc2cc3[n+](cc2c1OCC(O)CSc1nnnn1C)CCc1cc2c(cc1-3)OCO2.[Br-] (centres undefined) | 56 µM | 56 µM | 111 µM | 111 µM | 56 µM | 111 µM | 111 µM | 56 µM | 111 µM | 992 µM | 28 µM | 111 µM |
| COc1ccc2cc3[n+](cc2c1OCC(O)Cn1cc(C=O)c2ccccc21)CCc1cc2c(cc1-3)OCO2.[Br-] (centres undefined) | 106 µM | 106 µM | 53 µM | 106 µM | 53 µM | 53 µM | 53 µM | 53 µM | 106 µM | 790 µM | 53 µM | 27 µM |
| COc1ccc2cc3[n+](cc2c1OCC(O)CSc1nnc(C)s1)CCc1cc2c(cc1-3)OCO2.[Br-] (centres undefined) | 108 µM | 108 µM | 108 µM | 108 µM | 108 µM | 108 µM | 108 µM | 108 µM | 108 µM | 1180 µM | 108 µM | 108 µM |
| CCN(CC)CC(O)COc1c(OC)ccc2cc3[n+](cc12)CCc1cc2c(cc1-3)OCO2.[Br-] (centres undefined) | 60 µM | 60 µM | 120 µM | 241 µM | 120 µM | 60 µM | 60 µM | 120 µM | 60 µM | 3320 µM | 241 µM | 60 µM |
| COc1ccc2cc3[n+](cc2c1OCC(O)Cn1ccnc1-c1ccccc1)CCc1cc2c(cc1-3)OCO2.[Br-] (centres undefined) | 27 µM | 7 µM | 106 µM | 53 µM | 53 µM | 53 µM | 106 µM | 106 µM | 106 µM | 701 µM | 27 µM | 106 µM |
| COc1ccc2cc3[n+](cc2c1OCC(O)Cn1cnc([N+](=O)[O-])c1)CCc1cc2c(cc1-3)OCO2.[Br-] (centres undefined) | 112 µM | 56 µM | 112 µM | 56 µM | 112 µM | 56 µM | 112 µM | 112 µM | 112 µM | 936 µM | 28 µM | 56 µM |
| COc1ccc2cc3[n+](cc2c1OCC(O)CN1CCOCC1)CCc1cc2c(cc1-3)OCO2.[Br-] (centres undefined) | 469 µM | 469 µM | 235 µM | 469 µM | 469 µM | 235 µM | 469 µM | 469 µM | 469 µM | 2190 µM | 235 µM | 469 µM |
| COc1ccc2cc3[n+](cc2c1OCC(O)Cn1nnnc1C)CCc1cc2c(cc1-3)OCO2.[Br-] (centres undefined) | 121 µM | 121 µM | 121 µM | 121 µM | 61 µM | 61 µM | 121 µM | 121 µM | 121 µM | 2150 µM | 121 µM | 121 µM |
| COc1ccc2cc3[n+](cc2c1OCC(O)Cn1cnc2cc([N+](=O)[O-])ccc21)CCc1cc2c(cc1-3)OCO2.[Br-] (centres undefined) | 103 µM | 103 µM | 103 µM | 103 µM | 26 µM | 51 µM | 103 µM | 51 µM | 103 µM | 895 µM | 51 µM | 26 µM |
| COc1ccc2cc3[n+](cc2c1OCC(O)CSc1nc[nH]n1)CCc1cc2c(cc1-3)OCO2.[Br-] (centres undefined) | 114 µM | 57 µM | 114 µM | 57 µM | 114 µM | 114 µM | 114 µM | 114 µM | 114 µM | 801 µM | 57 µM | 114 µM |
| COc1ccc2cc3[n+](cc2c1OCC(O)Cn1nnc2ccccc21)CCc1cc2c(cc1-3)OCO2.[Br-] (centres undefined) | 111 µM | 111 µM | 111 µM | 111 µM | 55 µM | 55 µM | 111 µM | 111 µM | 111 µM | 1720 µM | 111 µM | 111 µM |
| COc1ccc2cc3[n+](cc2c1OCC(O)CN1CCCCC1)CCc1cc2c(cc1-3)OCO2.[Br-] (centres undefined) | 118 µM | 59 µM | 236 µM | 236 µM | 236 µM | 236 µM | 118 µM | 118 µM | 118 µM | 2000 µM | 118 µM | 236 µM |
